Laboratory results published in patent US9732088B2, “C2-carbocyclic iminothiazine dioxides as BACE inhibitors, compositions, and their use” (Merck Sharp & Dohme Corp., priority 2014, dated 2017).

How the values were obtained:
[1] = molecular target: soluble human BACE-1 catalytic domain (Homo sapiens (Human), UniProt P56817); assay: BACE-1 Ki Assay (BACE-1 HTRF FRET Assay); type: biochemical; settings: Assay 1; Ki calculated from IC50 by Cheng-Prusoff
Protocol: Assay 1: BACE-1 Ki Assay (BACE-1 HTRF FRET Assay)
The compounds of the invention were determined to be potent inhibitors of BACE-1 using the following assay.
The following reagents were used in this assay. Na^+-Acetate pH 5.0; 1% Brij-35; Glycerol; Dimethyl Sulfoxide (DMSO); Recombinant human soluble BACE-1 catalytic domain (>95% pure); APP Swedish mutant peptide substrate (QSY7-APP^swe-Eu): QSY7-[…]-Europium-amide.
A homogeneous time-resolved FRET assay can be used to determine IC50 values for inhibitors of the soluble human BACE-1 catalytic domain. This assay monitors the increase of 620 nm fluorescence that resulted from BACE-1 cleavage of an APPswedish APP^swe mutant peptide FRET substrate (QSY7-[…]-Europium-amide). This substrate contains an N-terminal QSY7 moiety that serves as a quencher of the C-terminal Europium fluorophore (620 nm Em). In the absence of enzyme activity, 620 nm fluorescence is low in the assay and increased linearly over 3 hours in the presence of uninhibited BACE-1 enzyme. Inhibition of BACE-1 cleavage of the QSY7-APP^swe-Eu substrate by inhibitors is manifested as a suppression of 620 nm fluorescence.
Varying concentrations of inhibitors at 3× the final desired concentration in a volume of […] are preincubated with purified human BACE-1 catalytic domain (3 nM in 10 μl) for 30 minutes at 30° C. in reaction buffer containing 20 mM Na-Acetate pH 5.0, 10% glycerol, 0.1% Brij-35 and 7.5% DSMO. Reactions are initiated by addition of 10 μl of 600 nM QSY7-APP^swe-Eu substrate (200 nM final) to give a final reaction volume of 30 μl in a 384 well Nunc HTRF plate. The reactions are incubated at 30° C. for 1.5 hours. The 620 nm fluorescence is then read on a Rubystar HTRF plate reader (BMG Labtechnologies) using a […] delay followed by a 400 millisecond acquisition time window. Inhibitor IC50 values are derived from non-linear regression analysis of concentration response curves. Ki values are then calculated from IC50 values using the Cheng-Prusoff equation using a previously determined […] of 8 μM for the QSY7-APP^swe-Eu substrate at BACE-1. The example compounds of the invention were measured in this assay.

BACE-1 = BACE-1 (Homo sapiens (Human), UniProt P56817); assay: BACE-1 Cellular Assay (Aβ in HEK293-APPswe/lon cells); type: cell-based; settings: 4 hours
Sequence of BACE-1 (P56817 46-501): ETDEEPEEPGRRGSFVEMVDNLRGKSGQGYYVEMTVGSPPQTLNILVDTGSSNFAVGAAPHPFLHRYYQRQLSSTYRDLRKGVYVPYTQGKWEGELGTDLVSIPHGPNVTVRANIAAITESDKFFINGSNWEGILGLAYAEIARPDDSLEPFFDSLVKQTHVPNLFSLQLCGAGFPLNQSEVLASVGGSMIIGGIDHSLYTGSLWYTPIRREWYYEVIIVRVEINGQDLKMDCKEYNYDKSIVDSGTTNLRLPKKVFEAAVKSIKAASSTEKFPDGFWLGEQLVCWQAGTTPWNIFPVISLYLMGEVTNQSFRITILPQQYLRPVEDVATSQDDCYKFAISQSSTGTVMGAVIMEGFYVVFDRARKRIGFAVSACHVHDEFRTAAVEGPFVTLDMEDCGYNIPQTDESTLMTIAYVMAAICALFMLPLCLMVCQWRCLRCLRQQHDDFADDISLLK
Protocol: Assay 3: BACE-1 Cellular Assay
Certain compounds of the invention, identified in the tables herein, were determined to be potent inhibitors of BACE-1 in the following cellular assay. HEK293 cells are obtained from the American Type Culture Collection (ATCC) and stably transfected with the human amyloid precursor protein cDNA containing the FAD Swedish (enhances β-secretase processing) and London (enhances Aβ42 cleavage) mutations. A HEK293 stable clone with Aβ expression (HEK293-APP^swe/lon) is identified and maintained at 37° C., 5% CO2 in the ATCC-recommended growth media supplemented with hygromycin. […] Aβ40 or Aβ42 are measured in 15 μl of media using a mesoscale based ELISA assay. Full length Aβ40 and Aβ42 peptides are captured with the N-terminal specific biotinylated-WO2 monoclonal antibody and detected using either the ruthenylated Aβ40 C-terminal specific monoclonal antibody, G2-10 or the ruthenylated Aβ42 C-terminal specific monoclonal antibody G2-11 respectively. Raw electrochemiluminescnce values are measured using a Mesoscale Sector Imager plate reader and are plotted as a function of compound concentration. IC50 values are interpolated from the data using nonlinear regression analysis (Sigmoidal dose response fit with variable slope) of the data using GraphPad Prism software.

[2] = molecular target: purified human autoBACE-2 (Homo sapiens (Human), UniProt Q9Y5Z0); assay: BACE-2 Assay (BACE-HTRF assay); type: biochemical; settings: Assay 2; Ki calculated from IC50 by Cheng-Prusoff; read-out: BACE2 Ki
Sequence of purified human autoBACE-2 (Q9Y5Z0 63-466): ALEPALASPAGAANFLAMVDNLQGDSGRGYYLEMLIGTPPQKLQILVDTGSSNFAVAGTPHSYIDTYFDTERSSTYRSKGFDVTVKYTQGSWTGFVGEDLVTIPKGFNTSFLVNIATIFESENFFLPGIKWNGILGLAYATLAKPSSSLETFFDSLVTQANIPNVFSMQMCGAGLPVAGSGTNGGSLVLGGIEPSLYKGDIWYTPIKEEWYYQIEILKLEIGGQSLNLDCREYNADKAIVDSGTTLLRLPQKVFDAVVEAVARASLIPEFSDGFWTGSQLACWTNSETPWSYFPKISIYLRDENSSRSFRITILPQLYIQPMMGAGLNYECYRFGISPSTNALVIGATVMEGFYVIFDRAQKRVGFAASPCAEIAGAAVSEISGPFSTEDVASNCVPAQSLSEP
Protocol: The compounds of the invention were determined to be potent inhibitors of BACE-2 using the following assay. Inhibitor IC50s at purified human autoBACE-2 are determined in a time-resolved endpoint proteolysis assay that measures hydrolysis of the QSY7-[…]-Eu-amide FRET peptide substrate (BACE-HTRF assay). BACE-mediated hydrolysis of this peptide results in an increase in relative fluorescence (RFU) at 620 nm after excitation with 320 nm light Inhibitor compounds, prepared at 3× the desired final concentration in 1×BACE assay buffer (20 mM sodium acetate pH 5.0, 10% glycerol, 0.1% Brij-35) supplemented with 7.5% DMSO are pre-incubated with an equal volume of autoBACE-2 enzyme diluted in 1×BACE assay buffer (final enzyme concentration 1 nM) in black 384-well NUNC plates for 30 minutes at 30° C. […] DMSO is present at […] final concentration in the assay. Following laser excitation of sample wells at 320 nm, the fluorescence signal at 620 nm is collected for 400 ms following a 50 μs delay on a RUBYstar HTRF plate reader (BMG Labtechnologies). Raw RFU data is normalized to maximum (1.0 nM BACE/DMSO) and minimum (no enzyme/DMSO) RFU values. IC50 values are determined by nonlinear regression analysis (sigmoidal dose response, variable slope) of percent inhibition data with minimum and maximum values set to 0 and 100 percent respectively. Similar IC50s are obtained when using raw RFU data. The Ki values are calculated from the IC50 using the Cheng-Prusoff equation.

[3] = molecular target: purified human Cathepsin-D (Homo sapiens (Human), UniProt P07339); assay: Cathepsin-D Assay (time-resolved FRET); type: biochemical; settings: Assay 4; Ki calculated from IC50 by Cheng-Prusoff;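 also: Europium-labelled peptide substrate with QSY7 quencher, cleavage read as 620 nm fluorescence after 30 min preincubation then 30 min reaction at 30 °C, pH 5.0, inhibition lowers signal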
Sequence of purified human Cathepsin-D (P07339 65-412): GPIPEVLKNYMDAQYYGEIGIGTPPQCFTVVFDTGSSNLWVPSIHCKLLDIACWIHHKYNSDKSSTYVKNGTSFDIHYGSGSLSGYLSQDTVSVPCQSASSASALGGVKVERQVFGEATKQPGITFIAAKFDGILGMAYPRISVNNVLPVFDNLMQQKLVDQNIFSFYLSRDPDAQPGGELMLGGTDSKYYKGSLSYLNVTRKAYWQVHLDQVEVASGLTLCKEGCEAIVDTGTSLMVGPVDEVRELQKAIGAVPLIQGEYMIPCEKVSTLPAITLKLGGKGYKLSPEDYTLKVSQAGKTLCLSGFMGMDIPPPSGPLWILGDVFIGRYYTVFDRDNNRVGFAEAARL

Sequence of soluble human BACE-1 catalytic domain (P56817 75-416): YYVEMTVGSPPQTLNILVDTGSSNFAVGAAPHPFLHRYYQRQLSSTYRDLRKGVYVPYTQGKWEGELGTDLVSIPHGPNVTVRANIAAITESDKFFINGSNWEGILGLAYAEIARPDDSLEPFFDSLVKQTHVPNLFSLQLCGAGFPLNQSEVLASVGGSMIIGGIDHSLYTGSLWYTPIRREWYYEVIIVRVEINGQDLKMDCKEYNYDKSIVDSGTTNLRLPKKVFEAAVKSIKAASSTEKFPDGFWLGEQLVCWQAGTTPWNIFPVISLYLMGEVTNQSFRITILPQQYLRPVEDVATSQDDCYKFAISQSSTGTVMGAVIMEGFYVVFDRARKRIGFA

Row | SMILES | Ki [1] [nM] | IC50 (BACE-1) [nM] | Ki [2] [nM] | Ki [3] [nM]
1 | CC#CCOc1cnc2c(Nc3cc([C@]4(C)CS(=O)(=O)[C@@](C)(C5CC5)C(N)=N4)c(F)cn3)nccc2c1 [Example 10, 3-(but-2-yn-1-yloxy)-N-{4-[(3R,6S)-6-cyclopropyl-5-imino-3,6-dimethyl-1,1-dioxidothiomorpholin-3-yl]-5-fluoropyridin-2-yl}-1,7-naphthyridin-8-amine] | 0.79 | 0.25 | 0.64 | > 9400
2 | CC#CCOc1cnc2c(Nc3cnc(F)c([C@]4(C)CS(=O)(=O)[C@@](CF)(C5CC5)C(N)=N4)c3)nccc2c1 [Example 11, 3-(but-2-yn-1-yloxy)-N-{5-[(3R,6S)-6-cyclopropyl-6-(fluoromethyl)-5-imino-3-methyl-1,1-dioxidothiomorpholin-3-yl]-6-fluoropyridin-3-yl}-1,7-naphthyridin-8-amine] | 0.91 | 4.1 | 7.5 | 857
3 | COc1cnc2c(Nc3cnc(F)c([C@]4(C)CS(=O)(=O)[C@@](CF)(C5CC5)C(N)=N4)c3)nccc2c1 [Example 12, N-{5-[(3R,6S)-6-cyclopropyl-6-(fluoromethyl)-5-imino-3-methyl-1,1-dioxidothiomorpholin-3-yl]-6-fluoropyridin-3-yl}-3-methoxy-1,7-naphthyridin-8-amine] | 6.1 | 99 | 3.3 | 629
4 | CC#CCOc1cnc2c(Nc3cnc(F)c([C@]4(C)CS(=O)(=O)[C@@](CF)(C5CC5)C(N)=N4)c3)nccc2n1 [Example 13, 2-(but-2-yn-1-yloxy)-N-{5-[(3R,6S)-6-cyclopropyl-6-(fluoromethyl)-5-imino-3-methyl-1,1-dioxidothiomorpholin-3-yl]-6-fluoropyridin-3-yl}pyrido[3,4-b]pyrazin-5-amine] | 0.65 | 6.6 | 1.1 | 3380
5 | C[C@@]1(c2cc(Nc3ncnc4cc(Br)cnc34)ccc2F)CS(=O)(=O)[C@@](C)(C2CC2)C(N)=N1 [Example 15, 7-bromo-N-{3-[(3R,6S)-6-cyclopropyl-5-imino-3,6-dimethyl-1,1-dioxidothiomorpholin-3-yl]-4-fluorophenyl}pyrido[3,2-d]pyrimidin-4-amine] | 1.8 | 3.4 | 0.73 | 321
6 | C[C@@]1(c2cc(Nc3nccc4cc(Br)cnc34)ccc2F)CS(=O)(=O)[C@@](C)(C2CC2)C(N)=N1 [Example 17, 3-bromo-N-{3-[(3R,6S)-6-cyclopropyl-5-imino-3,6-dimethyl-1,1-dioxidothiomorpholin-3-yl]-4-fluorophenyl}-1,7-naphthyridin-8-amine] | 1.4 | 16 | 0.41 | 146
7 | COc1cnc2c(Nc3cc([C@]4(C)CS(=O)(=O)[C@@](C)(C5CC5)C(N)=N4)c(F)cn3)ncnc2c1 [Example 19, N-{4-[(3R,6S)-6-cyclopropyl-5-imino-3,6-dimethyl-1,1-dioxidothiomorpholin-3-yl]-5-fluoropyridin-2-yl}-7-methoxypyrido[3,2-d]pyrimidin-4-amine] | 67 | 192 | 21 | 9300
8 | COc1cnc2c(Nc3ccc(F)c([C@]4(C)CS(=O)(=O)[C@@](C)(C5CC5)C(N)=N4)c3)ncnc2c1 [Example 20, (2S,5R)-2-cyclopropyl-5-(2-fluoro-5-((7-methoxypyrido[3,2-d]pyrimidin-4-yl)amino)phenyl)-3-imino-2,5-dimethylthiomorpholine 1,1-dioxide] | 3.7 | 5.3 | 2.4 | 2160
9 | C[C@@]1(c2cc(Nc3nccc4cc(O)cnc34)ncc2F)CS(=O)(=O)[C@@](C)(C2CC2)C(N)=N1 [Example 25, (3R,6S)-5-amino-6-cyclopropyl-3-(5-fluoro-2-((3-hydroxy-1,7-naphthyridin-8-yl)amino)pyridin-4-yl)-3,6-dimethyl-3,6-dihydro-2H-1,4-thiazine 1,1-dioxide] | 0.89 | 4.9 | 0.59 | > 9400
10 | C[C@@]1(c2cc(Nc3nccc4cc(Cl)cnc34)ncc2F)CS(=O)(=O)[C@@](C)(C2CC2)C(N)=N1 [Example 27, (3R,6S)-5-amino-3-(2-((3-chloro-1,7-naphthyridin-8-yl)amino)-5-fluoropyridin-4-yl)-6-cyclopropyl-3,6-dimethyl-3,6-dihydro-2H-1,4-thiazine 1,1-dioxide] | 10 | 180 | 2.9 | > 9400
11 | COc1cnc2c(Nc3cnc(F)c([C@]4(C)CS(=O)(=O)[C@@](C)(C5CC5)C(N)=N4)c3)nccc2c1 [Example 32, (3R,6S)-5-amino-6-cyclopropyl-3-(2-fluoro-5-((3-methoxy-1,7-naphthyridin-8-yl)amino)pyridin-3-yl)-3,6-dimethyl-3,6-dihydro-2H-1,4-thiazine 1,1-dioxide] | 6.9 | 24 | 2.6 | 650
12 | C[C@@]1(c2cc(Nc3ccnc4cc(Cl)cnc34)ncc2F)CS(=O)(=O)[C@@](C)(C2CC2)C(N)=N1 [Example 33, (3R,6S)-5-amino-3-(2-((7-chloro-1,5-naphthyridin-4-yl)amino)-5-fluoropyridin-4-yl)-6-cyclopropyl-3,6-dimethyl-3,6-dihydro-2H-1,4-thiazine 1,1-dioxide] | 6.2 | 27 | 0.82 | 820
13 | C[C@@]1(c2cc(Nc3ncnc4cc(Br)cnc34)ncc2F)CS(=O)(=O)[C@@](C)(C2CC2)C(N)=N1 [Example 38, (3R,6S)-5-amino-3-(2-((7-bromopyrido[3,2-d]pyrimidin-4-yl)amino)-5-fluoropyridin-4-yl)-6-cyclopropyl-3,6-dimethyl-3,6-dihydro-2H-1,4-thiazine 1,1-dioxide] | 8.2 | 110 | 3.8 | 3200
